Measured values: patent US8093284B2, “Process for producing aqueous solution of doripenem” (Shionogi & Co., Ltd., priority 2005, dated 2012)

Key:
Assay type in all cases: physicochemical
[1] = Decomposition of doripenem on heating and dissolving an aqueous suspension with a continuous heating and dissolving equipment; conditions: continuous heating; position of 28 m of the equipment; heating source around 60° C., about 6 L/min, solution around 55° C. at outlet; 15.5 kg in 280 L water
Description: An aqueous suspension of doripenem (aqueous suspension in which 15.5 kg of doripenem had been mixed with 280 L of water) was cooled to 10° C. or lower to suppress decomposition during waiting. This aqueous suspension was passed through a continuous heating and dissolving equipment of an inner diameter of around 23 mm and a length of around 28 m, having a heating source at around 60° C. at about 6 L/min, and elevation in a temperature and dissolution were performed during passage through the machine to obtain an aqueous solution of doripenem at around 55° C. at an outlet of the dissolving machine. A decomposition degree of doripenem at a position of 28 m of the continuous heating and dissolving equipment was about 0.2%.

[2] = Decomposition of doripenem on heating and dissolving an aqueous suspension in a batch manner; conditions: heating medium around 60° C., solution around 55° C., measured immediately after dissolution, 15.5 kg in 280 L water
Description: An aqueous suspension of doripenem (aqueous suspension in which 15.5 kg of doripenem had been mixed with 280 L of water) was cooled to 10° C. or lower to suppress decomposition during waiting. This aqueous suspension was dissolved as it was using a heating medium at around 60° C. to obtain an aqueous solution of doripenem, at around 55° C. A decomposition degree of doripenem measured immediately after dissolution of doripenem was about 7%.

[3] = Decomposition of doripenem in an aqueous solution at 40, 50 or 60° C.; conditions: aqueous solution at 40° C., 50° C., or 60° C.
Description: Decomposition of doripenem in an aqueous solution of doripenem at 40° C., 50° C., or 60° C. was examined. […] FIG. 2, FIG. 3 and FIG. 4 show a doripenem decomposition curve at each temperature.

## C[C@@H](O)[C@H]1C(=O)N2C(C(=O)O)=C(S[C@@H]3CN[C@H](CNS(N)(=O)=O)C3)[C@H](C)[C@H]12 [doripenem]
[1]
  decomposition degree of doripenem: about 0.2%
[2]
  decomposition degree of doripenem: about 7%
[3]
  decomposition of doripenem in aqueous solution: decomposed at these temperatures with time
